Laboratory results from US20120065257A1, “USE OF BENZO-FUSED HETEROCYLE SULFAMIDE DERIVATIVES FOR THE TREATMENT OF MIGRAINE” (priority 2006, published 2012).

How the values were obtained:
[1] = Body weight and systemic physiology monitoring during CSD testing; assay type: in vivo, Sprague-Dawley rats; details: 100 mg/kg/day p.o. for 35 days
Description: Vehicle or Compound #8 was administered orally once a day for 35 days. On the last day of treatment, rats continued to receive food and water ad libitum, and were given their daily oral dose of vehicle or Compound #8 approximately 1.5 h prior to CSD testing. Rats were anesthetized using isoflurane and intubated via a tracheotomy for mechanical ventilation. Body temperature, blood pressure and heart rate were monitored throughout the procedure to ensure homeostasis. Rats were placed in a stereotaxic frame and three burr holes were drilled under saline cooling over the right hemisphere at the following coordinates (mm from bregma): (1) posterior 4.5, lateral 2.0 (occipital cortex): KCL application; (2) posterior 0.5, lateral 2.0 (parietal cortex): recording site 1; (3) anterior 2, lateral 2 (frontal cortex): recording site 2. Dura overlying the occipital cortex was gently removed. The steady (DC) potential and electrocorticogram (EcoG) were recorded with glass micropipettes filled with 200 mM NaCl, […] below the dural surface. An Ag/AgCl reference electrode was placed subcutaneously in the neck. Following surgical preparation, the cortex was allowed to recover for 30 minutes under saline irrigation. Cortical spreading depressions were initiated by placing a cotton ball soaked with 1M KCl on the pial surface. The number of KCL-induced CSDs was counted for 2 hours. Propagation speed was calculated from the distance (mm) between the recording electrodes 1 and 2, divided by the latency (min) between the CSDs recorded at these sites.

[2] = tested on: KCl-induced cortical spreading depression; assay: KCl-induced cortical spreading depression (CSD) assay as model of migraine; assay type: in vivo, Sprague-Dawley rats; details: 100 mg/kg/day p.o. for 35 days
Description: Cortical spreading depression (CSD) has been implicated in migraine and as a headache trigger, and can be evoked in experimental animals by electrical or chemical stimulation (Kunkler & Kraig, 2003; Lauritzen et al., 1982; Moskowitz, 1984).
Adult male Sprague-Dawley rats (250-600 g) were divided into two treatment groups: vehicle (0.5% methylcellulose; n=13) and Compound #8 (100 mg/kg/day, p.o.; n=7). Results were compared to historical positive controls with valproic acid at 200 mg/kg/day, i.p.
Vehicle or Compound #8 was administered orally once a day for 35 days. On the last day of treatment, rats continued to receive food and water ad libitum, and were given their daily oral dose of vehicle or Compound #8 approximately 1.5 h prior to CSD testing. Rats were anesthetized using isoflurane and intubated via a tracheotomy for mechanical ventilation. Body temperature, blood pressure and heart rate were monitored throughout the procedure to ensure homeostasis. […] The steady (DC) potential and electrocorticogram (EcoG) were recorded with glass micropipettes filled with 200 mM NaCl, […] below the dural surface. […] The number of KCL-induced CSDs was counted for 2 hours. Propagation speed was calculated from the distance (mm) between the recording electrodes 1 and 2, divided by the latency (min) between the CSDs recorded at these sites. […]

[3] = tested on: KCl-induced cortical spreading depression; details: historical positive control, 200 mg/kg/day i.p. for 4 weeks; saline 18; p<0.05; cited from earlier work

Compound: CN(C)S(=O)(=O)NCC1COc2ccccc2O1 (racemic) [Compound #6, N-(2,3-Dihydro-benzo[1,4]dioxin-2-ylmethyl)-N′,N′ dimethylsulfamide]
- melting point: 76 to 78 °C

Compound: NS(=O)(=O)NC[C@H]1COc2cc(Cl)c(Cl)cc2O1 [Compound #29, (2S)-(−)-N-(6,7 Dichloro-2,3-dihydro-benzo[1,4]dioxin-2-ylmethyl)-sulfamide]
- melting point: 119 to 121 °C

Compound: NS(=O)(=O)NCCC1COc2ccccc2O1 (centres unmarked) [Compound #16, 2-(2,3-Dihydro-benzo[1,4]dioxin-2-yl)-ethylsulfamide]
- melting point: 101 to 103 °C

Compound: NS(=O)(=O)NC[C@H]1COc2cc(Cl)ccc2O1 [Compound #8, (2S)-(−)-N-(6-Chloro-2,3-dihydro-benzo[1,4]dioxin-2-ylmethyl)-sulfamide]
- Physiological monitoring, including arterial pH, pCO2, pO2 and blood pressure, versus vehicle [1]: did not differ between the groups
- Systemic Physiology: pH (arterial) ([1]; vehicle 7.44 ± 0): 7.42 ± 0.03
- Systemic Physiology: pCO2 ([1]; vehicle 38 ± 3, in mmHg (unit assumed)): 39 ± 3
- Systemic Physiology: BP ([1]; vehicle 105 ± 14, in mmHg (unit assumed)): 107 ± 18
- Systemic Physiology: pO2 ([1]; vehicle 162 ± 9, in mmHg (unit assumed)): 157 ± 18
- Body weight ([1]; vehicle 401 ± 40): 418 ± 31 g
- CSDs (2 h) ≧ 5 mV (number of KCl-induced cortical spreading depressions) ([2]; 1M KCl topical, counted for 2 hours, vehicle 16 ± 3, p=0.12, not significant): 14±3
- Propagation Speed ([2]; vehicle 3.2 ± 1, p=0.06): 2.7±0.4 mm/min

Compound: CN(CC1COc2ccccc2O1)S(N)(=O)=O (racemic) [Compound #7, N-(2,3-Dihydro-benzo[1,4]dioxin-2-ylmethyl)-N-methylsulfamide]
- melting point: 97 to 98 °C

Compound: CCCC(CCC)C(=O)O [valproate, valproic acid]
- number of cortical spreading depressions [3]: 14

Compound: NS(=O)(=O)NCC1CCc2ccccc2O1 (centres unmarked) [Compound #10, Chroman-2-ylmethylsulfamide]
- melting point: 100 to 101 °C
